Experimental data as given in patent US20010004643A1, “Pharmaceutical composition with sotalol combination and their use in treatment of cardiac ailments” (priority 1999, published 2001).
Entries after “also recorded” stand apart in the source; their conditions may differ. Marks after values point to notes of the source that are not given here.

What was measured:
[1] = system: ouabain induced arrhythmia (VT, VF, mortality); assay: Ouabain induced arrhythmia model in guinea pig; format: in vivo; details: for % INCIDENCE OF MORTALITY: mortality at 60 min; for deaths due to conduction block (60 min), actual incidence (value in parenthesis) / deaths due to tachyarrhythmia (60 min), actual incidence (value in parenthesis): number of animals; for % INCIDENCE OF VF / % INCIDENCE OF VT: ouabain 240 μg/kg in three doses, observed one hour; for DEATHS DUE TO CONDUCTION BLOCK (60 MIN) Percentage / DEATHS DUE TO TACHYARRHYTHMIA (60 MIN) Percentage: percentage deaths out of total mortality
From the text: Method: Guinea pigs (Dunken Hartley) of either sex weighing between 400 and 500 g were used for the study. The animals were anesthetized with urethane (1.25 g/kg. i.p.). The left common carotid artery and left jugular vein were cannulated for arterial blood pressure monitoring and intravenous access respectively. Lead II electrocardiogram, arterial blood pressure, mean arterial blood pressure (MABP), heart rate were monitored throughout the experiment.
After initial surgical preparations and allowing 30 minutes for the animal to stabilise the first dose of ouabain (90 μg/kg) was administered over a period of one minute. After the interval of thirty minutes, second dose of ouabain (60 μg/kg) was administered over a period of one minute. One minute after this dose, 0.5 ml saline (in control experiments) was administered over a period of one minute. After an interval of 10 minutes a third dose of ouabain (90 μg/kg) was administered over a period of one minute. […] The test compounds were administered to animals in test group in place of saline to evaluate their antiarrhythmic potential. From the ECG recordings, the incidence of VT, VF and mortality were recorded. The doses of ratios of sotalol isomers studied were 0.1, 0.5 and 2.5 mg/kg.
Interpretation of ECG recordings: Minor disturbance in rhythm was not considered while evaluating ventricular tachyarrhythmias. A run of more than 3 ventricular ectopic beats having wide QRS complexes associated with partial haemodynamic collapse was considered as Ventricular Tachycardia (VT). Total morphological irregularity of repetitive complexes for at least six cycles associated with complete haemodynamic collapse was considered as Ventricular Fibrillation (VF). Successful arrhythmia protection was defined as no occurrence of VT and VF from the injection of saline/test drug till the end of the experiment.
Statistics: Chi square test with continuity correction at 95% confidence limit was applied to find out the statistical significance between control and test groups for incidence of VT, VF and mortality. Whenever, any of the value in a cell was less than 5, Fischer's exact probability test was used.
Results: Different ratios of sotalol in the dose range from 0.02 mg/kg to 12.5 mg/kg were studied in individual groups of animals. In all 18 groups were studied and at least 6 animals were used in each group. In control animals ouabain 240 μg/kg in three divided doses induced reproducible ventricular tachyarrhythmias in guinea pigs. It was observed that ventricular arrhythmias appeared after the administration of the third dose. Guinea pigs which responded early i.e. before or within 1 min. of administration of the second dose, were considered early responders and were not included in the study. […] In the study, control experiments were carried out randomly interspersed in test groups. Among the 42 control animals the incidence of VT was 81%, incidence of VF was 71.4% and the incidence of mortality at 60 minutes was 61.9%.

[2] = system: beta adrenergic blockade, isolated right auricle preparation of rabbit; assay: Beta blocking potency (pA2 against isoprenaline) in isolated rabbit right auricle; details: isoprenaline chronotropic response, Schild's plot
Protocol: Estimation of the beta blockade of various ratios of d- and l- isomers of sotalol was carried out in the isolated right auricle preparation of rabbit. The spontaneously beating right atrium was dissected and mounted in a 20 ml tissue bath. The resting tension on the atria was set at 1 g. The contractions were recorded using a force displacement transducer. The spontaneous contractions of the right atria were recorded isometrically and the heart rate was obtained as a derived parameter using a ratemeter that gave the output in beats per minute. Six different ratios of d and l isomers were investigated (1:1, 2:1, 3:1, 4:1, 5:1 and 1:0). Dose-response-curves (DRC) for isoprenaline in the isolated atria, using the chronotropic response were determined by cumulative addition of isoprenaline. The pA2 values of each of the ratios were estimated using the classical Schild's plot (Schild, 1957) and the values are shown in Table 1.

[3] = 0.5 mg/kg, number of animals of the group
[4] = 2.5 mg/kg, number of animals of the group
[5] = guinea pig, in vivo, listed as 2:1 ratio (d:l)

CC(C)NCC(O)c1ccc(NS(C)(=O)=O)cc1 (stereo not shown) [2:1 RATIO, N-[4-[1-hydroxy-2-[(1-methylethyl)amino]ethyl]phenyl] methane sulfonamide]
protection against VF ([1]; 0.5 mg/kg): some protection, it was not complete | actual incidence of mortality (value in parenthesis) ([1]; 0.5 mg/kg, 60 min, number of animals of the group): (3) | protection against ouabain induced VT ([1]; 0.5 mg/kg, listed as 2:1 ratio (d:l)): some protection, it was not significant | % INCIDENCE OF MORTALITY ([1]; 0.5 mg/kg): 50.0% | deaths due to conduction block (60 min), actual incidence (value in parenthesis) ([1]; 0.5 mg/kg): (3) | deaths due to tachyarrhythmia (60 min), actual incidence (value in parenthesis) ([1]; 0.5 mg/kg): (0) | actual incidence of VF (value in parenthesis) [1, 3]: (2) | actual incidence of VT (value in parenthesis) [1, 3]: (3) | % INCIDENCE OF VF ([1]; 0.5 mg/kg): 33.3% | % INCIDENCE OF VT ([1]; 0.5 mg/kg): 50.0% | DEATHS DUE TO CONDUCTION BLOCK (60 MIN) Percentage ([1]; 0.5 mg/kg): 100.0% | DEATHS DUE TO TACHYARRHYTHMIA (60 MIN) Percentage ([1]; 0.5 mg/kg): 00.0% | protection against mortality ([1]; 2.5 mg/kg): protected significantly | protection from deaths due to tachyarrhythmias ([1]; 2.5 mg/kg): completely protected | protection against arrhythmias (VT and VF) ([1]; 2.5 mg/kg, listed as 2:1): completely protects; also recorded: complete protection | % INCIDENCE OF MORTALITY ([1]; 2.5 mg/kg): 16.6% | % INCIDENCE OF MORTALITY ([1]; 2.5 mg/kg, listed as 2:1): 16.6% | deaths due to conduction block (60 min), actual incidence (value in parenthesis) ([1]; 2.5 mg/kg): (1) | deaths due to tachyarrhythmia (60 min), actual incidence (value in parenthesis) ([1]; 2.5 mg/kg): (0) | actual incidence of VF (value in parenthesis) [1, 4]: (0)* | actual incidence of VT (value in parenthesis) [1, 4]: (0)* | % INCIDENCE OF VF ([1]; 2.5 mg/kg): 00.0% | % INCIDENCE OF VT ([1]; 2.5 mg/kg): 00.0% | DEATHS DUE TO CONDUCTION BLOCK (60 MIN) Percentage ([1]; 2.5 mg/kg): 100.0% | DEATHS DUE TO TACHYARRHYTHMIA (60 MIN) Percentage ([1]; 2.5 mg/kg): 00.0% | dose at which complete protection against VT was observed [1, 5]: 2.5 mg/kg | dose that completely protected against VF [1, 5]: 2.5 mg/kg | cause of deaths ([1]; no dose stated): due to conduction abnormalities | mortality compared with control groups ([1]; no dose stated): less than that of control groups | pA2 Mean ([2]; listed as 2:1): 6.28

CC(C)NCC(O)c1ccc(NS(C)(=O)=O)cc1 (stereo not shown) [5:1, N-[4-[1-hydroxy-2-[(1-methylethyl)amino]ethyl]phenyl] methane sulfonamide]
pA2 Mean [2]: 5.85
